Measured values published in patent publication US20260347403A1, “FUNGICIDAL COMPOUND” (priority 2022, published 2026).
Read-outs that look alike come from different tables or passages of the source. Numbered stars: 1 amine (or outer) side, 2 acyl side, 3 side chain; on linkers, the order of the positions; unused ones are H or OH. Bridge positions count the residues as written; N and C are the ends. Square brackets hold non-standard residues; d marks the D form. Peptide text beside a SMILES is read from it. * marks the point of attachment. Tridecanoyl(12-Me) = CC(C)CCCCCCCCCCC(=O)*; X1 = NC(=O)CC(O)C(N[*:1])C(=O)[*:2]; NMeF = CN[CH](Cc1ccccc1)C(=O)O; NMeN = CN[CH](CC(N)=O)C(=O)O; X2 = CCC(C)CCCCCCCCCCC(=O)*

Key:
[1] = tested on: Botryotinia fuckeliana; assay: Liquid culture, Botryotinia fuckeliana (Botrytis cinerea), Gray Mould, 3-4 days; assay type: cell-based
Experimental: (§1) Mycelia fragments or conidia suspensions of a fungus, prepared either freshly from liquid cultures of the fungus or from cryogenic storage, were directly mixed into nutrient broth.
(§2) A stock solution for compound of Formula I(a) and Formula I(b) was produced in DMSO (max. 10 mg/ml), which was diluted with water plus 0.025% Tween®20 to produce a 10× concentrated sample and 10 μl of this solution was pipetted into a microtiter plate (96-well format). The nutrient broth containing the fungal spores/mycelia fragments was then added to give an end concentration of the tested compound. The test plates were incubated in the dark at 24 °C and 96% rh. The inhibition of fungal growth was determined photometrically after 2-7 days, depending on the pathosystem, and percent antifungal activity relative to the untreated check was calculated.
(§3) The effect of the test compound (Formula I(a), I(b) and Lipopeptin A) was tested against the following fungi under the conditions as outlined above and specifically herein below:
Botryotinia fuckeliana (Botrytis cinerea)/Liquid Culture (Gray Mould)
Conidia of the fungus from cryogenic storage were directly mixed into nutrient broth (Vogels broth). The inhibition of growth is determined photometrically 3-4 days after application.

[2] = tested on: Zymoseptoria tritici; assay: Liquid culture, Zymoseptoria tritici (Septoria tritici), Septoria leaf blotch, 4-5 days; assay type: cell-based; conditions: Zymoseptoria tritici, read-out: % reduction fungal growth
Experimental: as §1, §2, §3
Zymoseptoria tritici (Septoria tritici)/liquid culture (Septoria leaf blotch) Conidia of the fungus from cryogenic storage were directly mixed into nutrient broth (PDB potato dextrose broth). The inhibition of growth was determined photometrically 4-5 days after application.

[3] = tested on: Zymoseptoria tritici; assay: Leaf painting assay in wheat seedling, Zymoseptoria tritici; assay type: in vivo, Zymoseptoria tritici on wheat (variety Riband); conditions: for % reduction of fungal growth: middle segment; for control on the treated area (middle segment): up to, Table 6, Zymoseptoria tritici
Experimental: Wheat seedlings of the variety Riband (for Zymoseptoria tritici trials) or variety Arina (for Puccinia recondite trials) were grown in a glasshouse until 14 d after seeding. At this time, such seedlings usually have a first leaf fully emerged (designated L1), a second leaf fully emerged (L2) and a third leaf (L3) that was partially emerged and in the process of development. Using a permanent pen, two dots were applied on the second leaf such as to generate three segments of roughly equal size: Segment A (at the base), segment B (middle part) and segment C (upper part of the leaf). A stock solution of the test compound was produced in DMSO at a concentration of 10′000 ppm. […] The diluted compound was applied to the middle segment of L2 using a conventional cotton stick; the cotton stick was soaked in the diluted compound and rubbed several times on the adaxial leaf surface between the two marks. 1 day later, the complete plant was inoculated with a fungal spore suspension using a paint brush and application of the spore suspension until before run-off.
For infection with Zymoseptoria tritici: The test plants were inoculated by spraying a spore suspension on them 1 day after application (1.5Mio spores per ml in water supplemented with 0.01% Tween®20). After an incubation period of 4 days at 22 °C/21 °C. (day/night) and 95% rh, the inoculated test plants were kept at 22 °C/21 °C (day/night) and 70% rh in a greenhouse. Efficacy was assessed by visual evaluation directly when an appropriate level of disease appears on untreated check plants (usually >80% disease cover at 16-19 days after inoculation).
The three segments of the leaf were evaluated individually.

[4] = tested on: ROS production induced by flg22; assay: Reactive Oxygen Species (ROS) burst assay with wheat leaf discs; conditions: Triticum aestivum, foliar
[5] = tested on: Microdochium nivale; assay: Liquid culture 96-well mixture assay with malonomicin, Microdochium nivale, 72 hrs; assay type: cell-based; conditions: read-out: control of fungal growth (% reduction)
Experimental: (§4) A stock solution for compound of Formula I(a) was produced in DMSO (max. 10 mg/ml). Malonomicin was produced according to Law et al, 2018 (Nature Catalys is |VOL 1|DECEMBER 2018|977-984). A stock solution of malonomicin was produced in water plus 0.025% Tween® 20.
(§5) Assays to test efficacy of mixtures of the lipopeptide compound of Formula I(a) in combination with malonomicin on the control of fungal pathogens in a liquid culture assay were designed for a 96well plate as outlined in table 1:
(§6) The 96 well plate design allows to compare disease control of the mixture with disease control of the respective single compound at the same rate.
(§7) A master plate with 10× concentrated solution of the compound stock solutions diluted in water plus 0.025% Tween® 20 was prepared. The concentration of DMSO (from the stock of compound of Formula (a)) and Tween® 20 was kept constant in all cells of the master plate. 10 μl was transferred from the master plate to a 96well test plate. The nutrient broth containing the fungal spores/mycelia fragments was then added to the test plate to give an end concentration of 1× for the tested compounds (as outlined in Table 8). The test plates were incubated in the dark at 24 °C and 96% rh. The inhibition of fungal growth was determined photometrically after ca 3 days, and percent fungal growth reduction relative to the untreated check was calculated.
Microdochium nivale (EPPO Code: MONGNI)
Conidia of the fungus from cryogenic storage were directly mixed into nutrient broth (PDB: potato dextrose broth).

[6] = tested on: Sclerotinia sclerotiorum; assay: Liquid culture 96-well mixture assay with malonomicin, Sclerotinia sclerotiorum, 72 hrs; assay type: cell-based; conditions: concentrations in Table 8
Experimental: as §4, §5, §6, §7
Sclerotinia sclerotiorum (EPPO Code: SCLESC)
Mycelial fragments of the fungus prepared from a fresh liquid culture were directly mixed into nutrient broth (PDB: potato dextrose broth).

[7] = read-out: Fold change (peak ROS)
[8] = read-out: increase of ROS production induced by flg22 (factor)

CCC(C)CCCCCCCCCCC(=O)NC1C(=O)NC(CC(=O)O)C(=O)NC(C(O)CC(N)=O)C(=O)NC(CO)C(=O)N(C)C(CC(N)=O)C(=O)N(C)C(Cc2ccccc2)C(=O)NC(CCC(N)=O)C(=O)NC(CCC(=O)O)C(=O)OC1C (stereo not shown) [Formula I(b)] (X2-TD[X1]S[NMeN][NMeF]QE; ester 1-C; configuration not given here)
% reduction fungal growth ([1]; Table 2, 0.41 ppm): 0%
% reduction fungal growth ([1]; Table 2, 1.2 ppm): 0%
% reduction fungal growth ([1]; Table 2, 3.7 ppm): 0%
% reduction fungal growth ([1]; Table 2, 11 ppm): 0%
% reduction fungal growth ([1]; Table 2, 33 ppm): 0%
% reduction fungal growth ([1]; Table 2, 100 ppm): 50%
% reduction fungal growth ([1]; Table 3, 11 ppm): 50%
% reduction fungal growth ([1]; Table 3, 33 ppm): 50%
% reduction fungal growth ([1]; Table 3, 100 ppm): 70%
inhibition of growth at 0.41 ppm ([2]; Table 2): 0%
inhibition of growth at 1.2 ppm ([2]; Table 2): 0%
inhibition of growth at 3.7 ppm ([2]; Table 2): 0%
inhibition of growth at 11 ppm ([2]; Table 2): 50%
inhibition of growth at 33 ppm ([2]; Table 2): 70%
inhibition of growth at 100 ppm ([2]; Table 2): 70%
inhibition of growth at 0.41 ppm ([2]; Table 3): 0%
inhibition of growth at 1.2 ppm ([2]; Table 3): 0%
inhibition of growth at 3.7 ppm ([2]; Table 3): 0%
inhibition of growth at 11 ppm ([2]; Table 3): 90%
inhibition of growth at 33 ppm ([2]; Table 3): 90%
inhibition of growth at 100 ppm ([2]; Table 3): 90%
% reduction of fungal growth ([3]; 20 ppm): 0%
% reduction of fungal growth ([3]; 200 ppm): 31%
control on the treated area (middle segment) [3]: up to 70%
fold induction at 1 ppm [4, 7]: 1.2
fold induction at 25 ppm [4, 7]: 1.3
fold induction at 100 ppm [4, 7]: 3
fold induction at 100 ppm [4, 8]: ≥ 2.7

NC[C@@H]1NC(=O)C(C(=O)CC(NC(=O)[C@@H](N)CO)(C(=O)O)C(=O)O)=C1O [malonomicin, {[(2S)-2-amino-3-hydroxypropanoyl]amino}{2-[(5S)-5-(aminomethyl)-4-hydroxy-2-oxo-2,5-dihydro-1H-pyrrol-3-yl]-2-oxoethyl}malonic acid]
inhibition of growth at 1 ppm ([5]; malonomicin 1.00 ppm): 20%
inhibition of growth at 3 ppm ([5]; malonomicin 3.00 ppm): 20%
inhibition of growth at 7.81 ppm ([5]; malonomicin 7.81 ppm): 20%
inhibition of growth at 15.63 ppm ([5]; malonomicin 15.63 ppm): 20%
inhibition of growth at 31.25 ppm ([5]; malonomicin 31.25 ppm): 20%
inhibition of growth at 62.5 ppm ([5]; malonomicin 62.5 ppm): 50%
inhibition of growth at 125 ppm ([5]; malonomicin 125 ppm): 90%
inhibition of growth at 250 ppm ([5]; malonomicin 250 ppm): 100%
inhibition of growth at 500 ppm ([5]; malonomicin 500 ppm): 100%
inhibition of growth at 1000 ppm ([5]; malonomicin 1000 ppm): 100%
control of fungal growth (% reduction of growth in the test well as compared to untreated check) ([6]; plate column (2), highest malonomicin concentration, lines A-G with compound of Formula I(a) dilution series, line H malonomicin alone): 90%
control of fungal growth (% reduction of growth in the test well as compared to untreated check) ([6]; plate column (3) of malonomicin dilution series, lines A-G with compound of Formula I(a), line H malonomicin alone): 90%
control of fungal growth (% reduction of growth in the test well as compared to untreated check) ([6]; plate column (4) of malonomicin dilution series, lines A-G with compound of Formula I(a), line H malonomicin alone): 90%
control of fungal growth (% reduction of growth in the test well as compared to untreated check) ([6]; plate column (5) of malonomicin dilution series, lines A-G with compound of Formula I(a), line H malonomicin alone): 70%
control of fungal growth (% reduction of growth in the test well as compared to untreated check) ([6]; plate column (6) of malonomicin dilution series, lines A-G with compound of Formula I(a), line H malonomicin alone): 50%
control of fungal growth (% reduction of growth in the test well as compared to untreated check) ([6]; plate column (7) of malonomicin dilution series, lines A-G with compound of Formula I(a), line H malonomicin alone): 20%
control of fungal growth (% reduction of growth in the test well as compared to untreated check) ([6]; plate column (8) of malonomicin dilution series, lines A-G with compound of Formula I(a), line H malonomicin alone): 0%
control of fungal growth (% reduction of growth in the test well as compared to untreated check) ([6]; plate column (9) of malonomicin dilution series, lines A-G with compound of Formula I(a), line H malonomicin alone): 0%
control of fungal growth (% reduction of growth in the test well as compared to untreated check) ([6]; plate column (10) of malonomicin dilution series, lines A-G with compound of Formula I(a), line H malonomicin alone): 0%
control of fungal growth (% reduction of growth in the test well as compared to untreated check) ([6]; plate column (11), lowest malonomicin concentration, lines A-G with compound of Formula I(a), line H malonomicin alone): 0%

CC(C)CCCCCCCCCCC(=O)NC1C(=O)NC(CC(=O)O)C(=O)NC(C(O)CC(N)=O)C(=O)NC(CO)C(=O)N(C)C(CC(N)=O)C(=O)N(C)C(Cc2ccccc2)C(=O)NC(CCC(N)=O)C(=O)NC(CCC(=O)O)C(=O)OC1C (stereo not shown) [Formula I(a)] ({Tridecanoyl(12-Me)}-TD[X1]S[NMeN][NMeF]QE; ester 1-C; configuration not given here)
% reduction fungal growth ([1]; Table 2, 0.41 ppm): 0%
% reduction fungal growth ([1]; Table 2, 1.2 ppm): 0%
% reduction fungal growth ([1]; Table 2, 3.7 ppm): 0%
% reduction fungal growth ([1]; Table 2, 11 ppm): 0%
% reduction fungal growth ([1]; Table 2, 33 ppm): 0%
% reduction fungal growth ([1]; Table 2, 100 ppm): 50%
% reduction fungal growth ([1]; Table 3, 3.7 ppm): 50%
% reduction fungal growth ([1]; Table 3, 11 ppm): 50%
% reduction fungal growth ([1]; Table 3, 33 ppm): 70%
% reduction fungal growth ([1]; Table 3, 100 ppm): 70%
inhibition of growth at 0.41 ppm ([2]; Table 2): 0%
inhibition of growth at 1.2 ppm ([2]; Table 2): 0%
inhibition of growth at 3.7 ppm ([2]; Table 2): 0%
inhibition of growth at 11 ppm ([2]; Table 2): 70%
inhibition of growth at 33 ppm ([2]; Table 2): 100%
inhibition of growth at 100 ppm ([2]; Table 2): 100%
inhibition of growth at 0.41 ppm ([2]; Table 3): 0%
inhibition of growth at 1.2 ppm ([2]; Table 3): 0%
inhibition of growth at 3.7 ppm ([2]; Table 3): 0%
inhibition of growth at 11 ppm ([2]; Table 3): 70%
inhibition of growth at 33 ppm ([2]; Table 3): 90%
inhibition of growth at 100 ppm ([2]; Table 3): 90%
% reduction of fungal growth ([3]; 20 ppm): 0%
% reduction of fungal growth ([3]; 200 ppm): 46%
control on the treated area (middle segment) [3]: up to 70%
inhibition of growth at 1.56 µg/mL ([5]; I(a) 1.56 ppm): 0%
inhibition of growth at 3.125 µg/mL ([5]; I(a) 3.125 ppm): 0%
inhibition of growth at 6.25 µg/mL ([5]; I(a) 6.25 ppm): 0%
inhibition of growth at 12.5 µg/mL ([5]; I(a) 12.5 ppm): 0%
inhibition of growth at 25 µg/mL ([5]; I(a) 25 ppm): 0%
inhibition of growth at 50 µg/mL ([5]; I(a) 50 ppm): 0%
inhibition of growth at 100 µg/mL ([5]; I(a) 100 ppm): 0%
control of fungal growth (% reduction of growth in the test well as compared to untreated check) ([6]; plate column (1): compound of Formula I(a) alone, dilution series lines A (highest) to G): 0%
fold induction at 1 ppm [4, 7]: 0.8
fold induction at 25 ppm [4, 7]: 0.8
fold induction at 100 ppm [4, 7]: 2.7
fold induction at 100 ppm [4, 8]: ≥ 2.7
